{"source": "patent US5385907A", "about": "“Ointments containing FK-506 or derivatives thereof” (priority 1990, dated 1995)", "origin": "cited, not measured here", "details": "dissolved in ethanol (EP-A-315978)"}
{"smiles": "C=CCC1C=C(C)CC(C)CC(OC)C2OC(O)(C(=O)C(=O)N3CCCCC3C(=O)OC(C(C)=CC3CCC(O)C(OC)C3)C(C)C(O)CC1=O)C(C)CC2OC", "note": "(stereo not shown) [FK 506 substance, 17-allyl-1,14-dihydroxy-12-[2-(4-hydroxy-3-methoxycyclohexyl)-1-methylvinyl]-23,25-dimethoxy-13,19,21,27-tetramethyl-11,28-dioxa-4-azatricyclo[22.3.1.0^4,9]octacos-18-ene-2,3,10,16-tetraone]", "values": [{"measurement": "inflammatory inhibition", "value": "effective against inflammatory inhibition"}]}
